Measurements from patent US10138255B2, “Piperazine derivatives as HIV protease inhibitors” (Merck Sharp & Dohme Corp., priority 2014, dated 2018).

What follows are compounds tested on HIV-1 (H9IIIB strain) (assay: Cell-Based HIV Infection Assay Using a Reporter (MT4-GFP cells)). Details: Human immunodeficiency virus 1, inflection point (IP) of viral growth inhibition; MT4-GFP cells infected with HIV-1 H9IIIB; 50% normal human serum; mean of at least two independent experiments; read-out: Cell Based IP (50% NHS).
In short: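 MT4-GFP cells (HIV LTR-driven GFP) bulk-infected with HIV-1 H9IIIB at low MOI for 24 h, washed, then exposed to compounds in RPMI plus 50% normal human serum, 0.4% DMSO. Infected cells counted at 24 and 48 h; R0 = 48 h/24 h ratio, inhibition normalised to DMSO and triple-drug control; IP from 4-parameter fit.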

Compound | EC50
C[C@@H]1CC([C@H](c2ccc(Cl)c(F)c2)[C@H](N)C(=O)Nc2cccc(F)c2CC[C@H]2CN[C@@H]3CCCS(=O)(=O)N2C3)C[C@H](C)O1 (stereo partly drawn) [Example 165, (βR)-4-chloro-β-[(2R,6S)-2,6-dimethyltetrahydro-2H-pyran-4-yl]-N-(2-{2-[(6R,9S)-2,2-dioxido-2-thia-1,7-diazabicyclo[4.3.1]dec-9-yl]ethyl}-3-fluorophenyl)-3-fluoro-L-phenylalaninamide] | 7.5 nM
C[C@@H]1CC([C@H](c2ccc(F)cc2)[C@H](N)C(=O)Nc2ccc(F)c(F)c2CC[C@H]2CN[C@@H]3CCCS(=O)(=O)N2C3)C[C@H](C)O1 (stereo partly drawn) [Example 166, (βR)-β-[(2R,6S)-2,6-dimethyltetrahydro-2H-pyran-4-yl]-N-(2-{2-[(6R,9S)-2,2-dioxido-2-thia-1,7-diazabicyclo[4.3.1]dec-9-yl]ethyl}-3,4-difluorophenyl)-4-fluoro-L-phenylalaninamide] | 25 nM
COC(=O)N[C@H](C(=O)Nc1cccc(F)c1CC[C@H]1CN[C@@H]2CCCS(=O)(=O)N1C2)[C@@]1(c2ccc(Cl)cc2)C[C@@H](C)O[C@@H](C)C1 [Example 167, methyl {(1S)-1-[(2R,4r,6S)-4-(4-chlorophenyl)-2,6-dimethyltetrahydro-2H-pyran-4-yl]-2-[(2-{2-[(6R,9S)-2,2-dioxido-2-thia-1,7-diazabicyclo[4.3.1]dec-9-yl]ethyl}-3-fluorophenyl)amino]-2-oxoethyl}carbamate] | 27 nM
C[C@@H]1C[C@](c2ccc(Cl)cc2)([C@H](N)C(=O)Nc2cccc(F)c2CC[C@H]2CN[C@@H]3CCCS(=O)(=O)N2C3)C[C@H](C)O1 [Example 168, (2S)-2-amino-2-[(2R,4r,6S)-4-(4-chlorophenyl)-2,6-dimethyltetrahydro-2H-pyran-4-yl]-N-(2-{2-[(6R,9S)-2,2-dioxido-2-thia-1,7-diazabicyclo[4.3.1]dec-9-yl]ethyl}-3-fluorophenyl)ethanamide] | 170 nM
COC(=O)N[C@H](C(=O)N[C@H]1CCCC[C@@H]1CC[C@H]1CN[C@@H]2CCCS(=O)(=O)N1C2)[C@@]1(c2ccc(Cl)cc2)C[C@@H](C)O[C@@H](C)C1 [Example 169, methyl [(1S)-1-[(2R,4r,6S)-4-(4-chlorophenyl)-2.6-dimethyltetrahydro-2H-pyran-4-yl]-2-{[(1S,2R)-2-{2-[(6R,9S)-2,2-dioxido-2-thia-1,7-diazabicyclo[4.3.1]dec-9-yl]ethyl}cyclohexyl]amino}-2-oxoethyl]carbamate] | 89 nM
C[C@@H]1C[C@](c2ccc(Cl)cc2)([C@H](N)C(=O)N[C@H]2CCCC[C@@H]2CC[C@H]2CN[C@@H]3CCCS(=O)(=O)N2C3)C[C@H](C)O1 [Example 170, (2S)-2-amino-2-[(2R,4r,6S)-4-(4-chlorophenyl)-2,6-dimethyltetrahydro-2H-pyran-4-yl]-N-[(1S,2R)-2-{2-[(6R,9S)-2,2-dioxido-2-thia-1,7-diazabicyclo[4.3.1]dec-9-yl]ethyl}cyclohexyl]ethanamide] | 230 nM
CO[C@H]1CC[C@](c2ccc(Cl)cc2)([C@H](N)C(=O)Nc2cccc(F)c2CC[C@H]2CN[C@@H]3CCCS(=O)(=O)N2C3)CC1 [Example 171, (2S)-2-amino-2-[trans-1-(4-chlorophenyl)-4-methoxycyclohexyl]-N-(2-{2-[(6R,9S)-2,2-dioxido-2-thia-1,7-diazabicyclo[4.3.1]dec-9-yl]ethyl}-3-fluorophenyl)ethanamide] | 34 nM
COC(=O)N[C@H](C(=O)Nc1cccc(F)c1CCC1CNC2CCCS(=O)(=O)N1C2)[C@@H](c1ccc(Cl)cc1)C1CCOC(CC(F)(F)F)C1 (stereo partly drawn) [Example 172, methyl {(1S,2R)-2-(4-chlorophenyl)-1-({2-[2-(2,2-dioxido-2-thia-1,7-diazabicyclo[4.3.1]dec-9-yl)ethyl]-3-fluorophenyl}carbamoyl)-2-[2-(2,2,2-trifluoroethyl)tetrahydro-2H-pyran-4-yl]ethyl}carbamate] | 38 nM
N[C@H](C(=O)Nc1cncc(F)c1CC[C@H]1CN[C@@H]2CCCS(=O)(=O)N1C2)[C@@H](c1ccc(Cl)cc1)C1CCOCC1 [Example 173, (βR)-4-chloro-N-(4-{2-[(6R,9S)-2,2-dioxido-2-thia-1,7-diazabicyclo[4.3.1]dec-9-yl]ethyl}-5-fluoropyridin-3-yl)-β-(tetrahydro-2H-pyran-4-yl)-L-phenylalaninamide] | 23 nM
COC(=O)N[C@H](C(=O)Nc1cncc(F)c1CC[C@H]1CN[C@@H]2CCCS(=O)(=O)N1C2)[C@@H](c1ccc(Cl)cc1)C1CCOCC1 [Example 174, methyl [(1S,2R)-2-(4-chlorophenyl)-1-[(4-{2-[(6R,9S)-2,2-dioxido-2-thia-1,7-diazabicyclo[4.3.1]dec-9-yl]ethyl}-5-fluoropyridin-3-yl)carbamoyl]-2-(tetrahydro-2H-pyran-4-yl)ethyl]carbamate] | 89 nM
COC(=O)N[C@H](C(=O)Nc1cccc(F)c1CC[C@H]1CN[C@@H]2CCCS(=O)(=O)N1C2)C1(c2ccc(Cl)cc2)CCN(S(C)(=O)=O)CC1 [Example 175, methyl {(1S)-1-[4-(4-chlorophenyl)-1-(methylsulfonyl)piperidin-4-yl]-2-[(2-{2-[(6R,9S)-2,2-dioxido-2-thia-1,7-diazabicyclo[4.3.1]dec-9-yl]ethyl}-3-fluorophenyl)amino]-2-oxoethyl}carbamate] | 120 nM
CS(=O)(=O)N1CCC(c2ccc(Cl)cc2)([C@H](N)C(=O)Nc2cccc(F)c2CC[C@H]2CN[C@@H]3CCCS(=O)(=O)N2C3)CC1 [Example 176, (2S)-2-amino-2-[4-(4-chlorophenyl)-1-(methylsulfonyl)piperidin-4-yl]-N-(2-{2-[(6R,9S)-2,2-dioxido-2-thia-1,7-diazabicyclo[4.3.1]dec-9-yl]ethyl}-3-fluorophenyl)ethanamide] | 150 nM
CCCN[C@H](C(=O)N[C@H]1CCC[C@@H]1CC[C@H]1CN[C@@H]2CCCS(=O)(=O)N1C2)[C@@H](c1ccc(Cl)cc1)C1CCOC(C)(C)C1 (stereo partly drawn) [Example 177, (βR)-4-chloro-β-(2,2-dimethyltetrahydro-2H-pyran-4-yl)-N-[(1S,2R)-2-{2-[(6R,9S)-2,2-dioxido-2-thia-1,7-diazabicyclo[4.3.1]dec-9-yl]ethyl}cyclopentyl]-Nα-propyl-L-phenylalaninamide] | 400 nM
COC(=O)N[C@H](C(=O)Nc1cncc(F)c1CC[C@H]1CN[C@@H]2CCCS(=O)(=O)N1C2)[C@@H](c1ccc(F)cc1)C1CCOCC1 [Example 178, methyl {(1S)-2-[(4-{2-[(6R,9S)-2,2-dioxido-2-thia-1,7-diazabicyclo[4.3.1]dec-9-yl]ethyl}-5-fluoropyridin-3-yl)amino]-1-[(R)-(4-fluorophenyl)(tetrahydro-2H-pyran-4-yl)methyl]-2-oxoethyl}carbamate] | 160 nM
CC1(C)CC([C@H](c2ccc(F)cc2)[C@H](N)C(=O)Nc2ccc(F)c(F)c2CC[C@H]2CN[C@@H]3CCCS(=O)(=O)N2C3)CCO1 (stereo partly drawn) [Example 179, (βR)-β-(2,2-dimethyltetrahydro-2H-pyran-4-yl)-N-(2-{2-[(6R,9S)-2,2-dioxido-2-thia-1,7-diazabicyclo[4.3.1]dec-9-yl]ethyl}-3,4-difluorophenyl)-4-fluoro-L-phenylalaninamide] | 31 nM
CO[C@H]1CC[C@H]([C@H](c2ccc(F)cc2)[C@H](N)C(=O)Nc2ccc(F)c(F)c2CC[C@H]2CN[C@@H]3CCCS(=O)(=O)N2C3)CC1 [Example 180, (βR)-N-(2-{2-[(6R,9S)-2,2-dioxido-2-thia-1,7-diazabicyclo[4.3.1]dec-9-yl]ethyl}-3,4-difluorophenyl)-4-fluoro-β-[(1r,4R)-4-methoxycyclohexyl]-L-phenylalaninamide] | 11 nM
CC1(C)CC([C@H](c2ccc(Cl)cc2)[C@H](NCC2CC2)C(=O)N[C@H]2CCC[C@@H]2CC[C@H]2CN[C@@H]3CCCS(=O)(=O)N2C3)CCO1 (stereo partly drawn) [Example 181, (βR)-4-chloro-Nα-(cyclopropylmethyl)-β-(2,2-dimethyltetrahydro-2H-pyran-4-yl)-N-[(1S,2R)-2-{2-[(6R,9S)-2,2-dioxido-2-thia-1,7-diazabicyclo[4.3.1]dec-9-yl]ethyl)cyclopentyl]-L-phenylalaninamide] | 640 nM
COCCN[C@H](C(=O)N[C@H]1CCC[C@@H]1CC[C@H]1CN[C@@H]2CCCS(=O)(=O)N1C2)[C@@H](c1ccc(Cl)cc1)C1CCOC(C)(C)C1 (stereo partly drawn) [Example 182, (βR)-4-chloro-β-(2,2-dimethyltetrahydro-2H-pyran-4-yl)-N-[(1S,2R)-2-{2-[(6R,9S)-2,2-dioxido-2-thia-1,7-diazabicyclo[4.3.1]dec-9-yl]ethyl}cyclopentyl]-Nα-(2-methoxyethyl)-L-phenylalaninamide] | 70 nM
CC[C@H](C)N[C@H](C(=O)N[C@H]1CCC[C@@H]1CC[C@H]1CN[C@@H]2CCCS(=O)(=O)N1C2)[C@@H](c1ccc(Cl)cc1)C1CCOC(C)(C)C1 (stereo partly drawn) [Example 183, (βR)-4-chloro-β-(2,2-dimethyltetrahydro-2H-pyran-4-yl)-N-[(1S,2R)-2-{2-[(6R,9S)-2,2-dioxido-2-thia-1,7-diazabicyclo[4.3.1]dec-9-yl]ethyl}cyclopentyl]-Nα-[(1S)-1-methylpropyl]-L-phenylalaninamide] | 1300 nM
CC1(C)CC([C@H](c2ccc(Cl)cc2)[C@H](NCCCC(F)(F)F)C(=O)N[C@H]2CCC[C@@H]2CC[C@H]2CN[C@@H]3CCCS(=O)(=O)N2C3)CCO1 (stereo partly drawn) [Example 184, (βR)-4-chloro-β-(2,2-dimethyltetrdhydro-2H-pyran-4-yl)-N-[(1S,2R)-2-{2-[(6R,9S)-2,2-dioxido-2-thia-1,7-diazabicyclo[4.3.1]dec-9-yl]ethyl}cyclopentyl]-Nα-(4,4,4-trifluorobutyl)-L-phenylalaninamide] | 330 nM
N[C@H](C(=O)Nc1cccc(F)c1CC[C@H]1CN[C@@H]2CCCS(=O)(=O)N1C2)C1(c2ccc(Cl)cc2)CCNCC1 [Example 185, (2S)-2-amino-2-[4-(4-chlorophenyl)piperidin-4-yl]-N-(2-{2-[(6R,9S)-2,2-dioxido-2-thia-1,7-diazabicyclo[4.3.1]dec-9-yl]ethyl}-3-fluorophenyl)ethanamide] | 3300 nM
